Test results taken from patent US11957759B1, “Rapidly accelerated fibrosarcoma (RAF) degrading compounds and associated methods of use” (Arvinas Operations, Inc., priority 2022, dated 2024).

How the values were obtained:
B-RAF V600E = target: T1, B-RAF V600E (Homo sapiens, UniProt P15056, V600E); assay: Target protein degradation, assay C: T-Rex 293 cells, HA-BRAF_V600E, 384 well format; type: cell-based; details: T-Rex 293 HA-BRAF_V600E cells, 24 hours, Examples 83-269; for DC50: Assay C; for Dmax: T-REx-293, Assay C
T1 construct: expressed in transfected cells; host or cells: T-Rex 293 cells (Invitrogen #R71007)
Procedure, shortened: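 T-Rex 293 cells stably expressing doxycycline-induced (1 ng/mL) HA-BRAF V600E were treated 24 h at 37 °C with compound (300 nM–5 pM, 11 points, 0.5% DMSO). HA immunofluorescence was quantified by high-content imaging to give DC50 and Dmax (% of control); nuclei counts versus DMSO gauged toxicity.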

B-RAF G466V = target: T2, B-RAF G466V (Homo sapiens, UniProt P15056, G466V); assay: Target protein degradation, assay D: T-Rex 293 cells, HA-BRAF_G466V, 384 well format; type: cell-based; details: T-Rex 293 HA-BRAF_G466V cells, 24 hours, Examples 83-269; for DC50: Assay D; for Dmax: T-REx-293, Assay D
T2 construct: expressed in transfected cells; host or cells: T-Rex 293 cells (Invitrogen #R71007)
Procedure, shortened: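 T-Rex 293 cells stably expressing doxycycline-induced (1 ng/mL) HA-BRAF G466V treated 24 h at 37 °C with PROTACs, 11-point 1:3 dilution, 300 nM to 5 pM final, 0.5% DMSO. Fixed cells immunostained for HA and imaged by high-content microscopy; DC50 and Dmax (% of control) derived, toxicity from nuclei counts versus DMSO.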

T2 sequence (P15056 whole entry G466V): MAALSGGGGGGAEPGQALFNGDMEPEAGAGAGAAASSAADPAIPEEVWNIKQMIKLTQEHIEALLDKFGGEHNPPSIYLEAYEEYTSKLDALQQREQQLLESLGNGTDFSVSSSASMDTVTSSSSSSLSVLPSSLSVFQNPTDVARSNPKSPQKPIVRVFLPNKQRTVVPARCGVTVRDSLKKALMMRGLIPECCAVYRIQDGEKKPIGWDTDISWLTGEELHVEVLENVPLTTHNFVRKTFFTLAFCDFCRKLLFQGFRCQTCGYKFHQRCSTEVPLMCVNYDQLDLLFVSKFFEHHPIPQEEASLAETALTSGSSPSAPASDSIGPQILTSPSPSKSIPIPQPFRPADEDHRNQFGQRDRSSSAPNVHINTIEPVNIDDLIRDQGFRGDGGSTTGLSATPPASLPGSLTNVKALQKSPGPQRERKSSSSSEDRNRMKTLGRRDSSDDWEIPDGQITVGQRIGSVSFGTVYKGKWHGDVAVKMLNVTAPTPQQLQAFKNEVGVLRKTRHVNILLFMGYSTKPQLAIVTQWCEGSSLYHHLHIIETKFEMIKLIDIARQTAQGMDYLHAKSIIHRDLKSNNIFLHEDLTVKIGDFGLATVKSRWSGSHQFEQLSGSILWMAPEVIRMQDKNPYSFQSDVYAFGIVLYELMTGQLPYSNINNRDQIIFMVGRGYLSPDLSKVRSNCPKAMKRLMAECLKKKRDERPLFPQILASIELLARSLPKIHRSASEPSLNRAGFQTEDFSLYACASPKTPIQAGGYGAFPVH
T1 sequence (P15056 whole entry V600E): as the sequence (P15056 whole entry G466V) above, with V466G, V600E counted along it

How did the DC50 (B-RAF V600E) turn out when N#Cc1c(NS(=O)(=O)N2CC[C@@H](F)C2)ccc(F)c1Oc1ccc2ncn(-c3ccc(N4CCC(CN5CCC(Oc6ccc7c(c6)C(=O)N(C6CCC(=O)NC6=O)C7=O)CC5)CC4)nc3)c(=O)c2c1 (stereo partly drawn) [Example 149, (3R)-N-(2-cyano-3-{[3-(6-{4-[(4-{[2-(2,6-dioxopiperidin-3-yl)-1,3-dioxo-2,3-dihydro-1H-isoindol-5-yl]oxy}piperidin-1-yl)methyl]piperidin-1-yl}pyridin-3-yl)-4-oxo-3,4-dihydroquinazolin-6-yl]oxy}-4-fluorophenyl)-3-fluoropyrrolidine-1-sulfonamide] was run?
Its DC50 is 5 to 50 nM.

What about the Dmax (B-RAF V600E) of the same molecule?
Its Dmax is no more than 35%.

And the DC50 (B-RAF G466V)?
Its DC50 is 10 to 30 nM.

And the Dmax (B-RAF G466V)?
Its Dmax is 35 to 70%.

What does the source list for N#Cc1c(NS(=O)(=O)N2CC[C@@H](F)C2)ccc(F)c1Oc1ccc2ncn(-c3ccc(N4CCN(CCCOc5cccc6c5C(=O)N(C5CCC(=O)NC5=O)C6=O)CC4)nc3)c(=O)c2c1 (stereo partly drawn) [Example 150, (3R)-N-{2-cyano-3-[(3-{6-[4-(3-{[2-(2,6-dioxopiperidin-3-yl)-1,3-dioxo-2,3-dihydro-1H-isoindol-4-yl]oxy}propyl)piperazin-1-yl]pyridin-3-yl}-4-oxo-3,4-dihydroquinazolin-6-yl)oxy]-4-fluorophenyl}-3-fluoropyrrolidine-1-sulfonamide]?
DC50 (B-RAF V600E): ≤ 5 nM; Dmax (B-RAF V600E): 35 to 70%; DC50 (B-RAF G466V): ≤ 1 nM; Dmax (B-RAF G466V): ≤ 35%

Which results are given for N#Cc1c(NS(=O)(=O)N2CC[C@@H](F)C2)ccc(F)c1Oc1ccc2ncn(-c3cnc(N4CCN(CCN5CCN(c6ccc7c(c6)CN(C6CCC(=O)NC6=O)C7=O)CC5)CC4)nc3)c(=O)c2c1 (stereo partly drawn) [Example 151, (3R)-N-{2-cyano-3-[(3-{2-[4-(2-{4-[2-(2,6-dioxopiperidin-3-yl)-1-oxo-2,3-dihydro-1H-isoindol-5-yl]piperazin-1-yl}ethyl)piperazin-1-yl]pyrimidin-5-yl}-4-oxo-3,4-dihydroquinazolin-6-yl)oxy]-4-fluorophenyl}-3-fluoropyrrolidine-1-sulfonamide]?
DC50 (B-RAF V600E): 5 to 50 nM; Dmax (B-RAF V600E): 35 to 70%; DC50 (B-RAF G466V): 1 to 10 nM; Dmax (B-RAF G466V): 35 to 70%

How did the DC50 (B-RAF V600E) turn out when CC(C)(C1CCN(c2ncc(-n3cnc4ccc(Oc5c(F)ccc(NS(=O)(=O)N6CC[C@@H](F)C6)c5C#N)cc4c3=O)cn2)CC1)N1CCN(c2ccc3c(c2)C(=O)N(C2CCC(=O)NC2=O)C3=O)CC1 (stereo partly drawn) [Example 152, (3R)-N-{2-cyano-3-[(3-{2-[4-(2-{4-[2-(2,6-dioxopiperidin-3-yl)-1,3-dioxo-2,3-dihydro-1H-isoindol-5-yl]piperazin-1-yl}propan-2-yl)piperidin-1-yl]pyrimidin-5-yl}-4-oxo-3,4-dihydroquinazolin-6-yl)oxy]-4-fluorophenyl}-3-fluoropyrrolidine-1-sulfonamide] was run?
The DC50 was 50 to 500 nM.

And the Dmax (B-RAF V600E)?
The Dmax was 35 to 70%.

And the DC50 (B-RAF G466V)?
The DC50 was 1 to 10 nM.

What about the Dmax (B-RAF G466V) of the same molecule?
Its Dmax is no more than 35%.

N#Cc1c(NS(=O)(=O)N2CC[C@@H](F)C2)ccc(F)c1Oc1ccc2ncn(-c3cnc(N4CCC(CN5CC6(C5)CN(c5cccc7c5C(=O)N(C5CCC(=O)NC5=O)C7=O)C6)CC4)nc3)c(=O)c2c1 (stereo partly drawn) [Example 153, (3R)-N-{2-cyano-3-[(3-{2-[4-({6-[2-(2,6-dioxopiperidin-3-yl)-1,3-dioxo-2,3-dihydro-1H-isoindol-4-yl]-2,6-diazaspiro[3.3]heptan-2-yl}methyl)piperidin-1-yl]pyrimidin-5-yl}-4-oxo-3,4-dihydroquinazolin-6-yl)oxy]-4-fluorophenyl}-3-fluoropyrrolidine-1-sulfonamide] was tested. Which DC50 (B-RAF V600E) did it give?
The DC50 was 50 to 500 nM.

What about the Dmax (B-RAF V600E) of the same molecule?
Its Dmax is 35 to 70%.

What about the DC50 (B-RAF G466V) of the same molecule?
The DC50 was greater than 30 nM.

How did the DC50 (B-RAF V600E) turn out when N#Cc1c(NS(=O)(=O)N2CC[C@@H](F)C2)ccc(F)c1Oc1ccc2ncn(-c3cnc(N4CC5(CN(CC6CCN(c7cccc8c7C(=O)N(C7CCC(=O)NC7=O)C8=O)CC6)C5)C4)nc3)c(=O)c2c1 (stereo partly drawn) [Example 154, (3R)-N-{2-cyano-3-[(3-(2-[6-({1-[2-(2,6-dioxopiperidin-3-yl)-1,3-dioxo-2,3-dihydro-1H-isoindol-4-yl]piperidin-4-yl}methyl)-2,6-diazaspiro[3.3]heptan-2-yl]pyrimidin-5-yl}-4-oxo-3,4-dihydroquinazolin-6-yl)oxy]-4-fluorophenyl}-3-fluoropyrrolidine-1-sulfonamide] was run?
The DC50 was 50 to 500 nM.

What about the Dmax (B-RAF V600E) of the same molecule?
The Dmax was no more than 35%.

And the DC50 (B-RAF G466V)?
The DC50 was 10 to 30 nM.

What about the Dmax (B-RAF G466V) of the same molecule?
Its Dmax is no more than 35%.

N#Cc1c(NS(=O)(=O)N2CC[C@@H](F)C2)ccc(F)c1Oc1ccc2ncn(-c3cnc(N4CCC(C5CN(c6ccc7c(c6)C(=O)N(C6CCC(=O)NC6=O)C7=O)C5)CC4)nc3)c(=O)c2c1 (stereo partly drawn) [Example 155] was tested. Which DC50 (B-RAF V600E) did it give?
The DC50 was greater than 500 nM.

What about the DC50 (B-RAF G466V) of the same molecule?
Its DC50 is 1 to 10 nM.

And the Dmax (B-RAF G466V)?
The Dmax was no more than 35%.

How did the DC50 (B-RAF V600E) turn out when N#Cc1c(NS(=O)(=O)N2CC[C@@H](F)C2)ccc(F)c1Oc1ccc2ncn(-c3cnc(N4CCC(CC5CCCN5c5ccc6c(c5)C(=O)N(C5CCC(=O)NC5=O)C6=O)CC4)nc3)c(=O)c2c1 (stereo partly drawn) [Example 156, (3R)-N-{2-cyano-3-[(3-{2-[4-({1-[2-(2,6-dioxopiperidin-3-yl)-1,3-dioxo-2,3-dihydro-1H-isoindol-5-yl]pyrrolidin-2-yl}methyl)piperidin-1-yl]pyrimidin-5-yl}-4-oxo-3,4-dihydroquinazolin-6-yl)oxy]-4-fluorophenyl}-3-fluoropyrrolidine-1-sulfonamide] was run?
The DC50 was 50 to 500 nM.

And the Dmax (B-RAF V600E)?
Its Dmax is 35 to 70%.

And the DC50 (B-RAF G466V)?
The DC50 was greater than 30 nM.

For N#Cc1c(NS(=O)(=O)N2CC[C@@H](F)C2)ccc(F)c1Oc1ccc2ncn(-c3ccc(NC4CCN(c5ccc6c(c5)C(=O)N(C5CCC(=O)NC5=O)C6=O)CC4)nc3)c(=O)c2c1 (stereo partly drawn) [Example 157, (3R)-N-[2-cyano-3-({3-[6-({1-[2-(2,6-dioxopiperidin-3-yl)-1,3-dioxo-2,3-dihydro-1H-isoindol-5-yl]piperidin-4-yl}amino)pyridin-3-yl]-4-oxo-3,4-dihydroquinazolin-6-yl}oxy)-4-fluorophenyl]-3-fluoropyrrolidine-1-sulfonamide], which DC50 (B-RAF V600E) is on record?
The DC50 was 50 to 500 nM.

And the Dmax (B-RAF V600E)?
The Dmax was 35 to 70%.

What about the DC50 (B-RAF G466V) of the same molecule?
The DC50 was greater than 30 nM.

Which DC50 (B-RAF V600E) does the source give for N#Cc1c(NS(=O)(=O)N2CC[C@@H](F)C2)ccc(F)c1Oc1ccc2ncn(-c3ccc(N4CC(C5CN(c6ccc7c(c6)C(=O)N(C6CCC(=O)NC6=O)C7=O)C5)C4)nc3)c(=O)c2c1 (stereo partly drawn) [Example 158, (3R)-N-(2-cyano-3-{[3-(6-{1'-[2-(2,6-dioxopiperidin-3-yl)-1,3-dioxo-2,3-dihydro-1H-isoindol-5-yl]-[3,3'-biazetidin]-1-yl}pyridin-3-yl)-4-oxo-3,4-dihydroquinazolin-6-yl]oxy}-4-fluorophenyl)-3-fluoropyrrolidine-1-sulfonamide] here?
Its DC50 is 50 to 500 nM.

What about the Dmax (B-RAF V600E) of the same molecule?
The Dmax was no more than 35%.

What about the DC50 (B-RAF G466V) of the same molecule?
Its DC50 is no more than 1 nM.

What about the Dmax (B-RAF G466V) of the same molecule?
Its Dmax is no more than 35%.

Which DC50 (B-RAF V600E) does the source give for N#Cc1c(NS(=O)(=O)N2CC[C@@H](F)C2)ccc(F)c1Oc1ccc2ncn(-c3ccc(N4CC(CC5CN(c6ccc7c(c6)C(=O)N(C6CCC(=O)NC6=O)C7=O)C5)C4)nc3)c(=O)c2c1 (stereo partly drawn) [Example 159, (3R)-N-{2-cyano-3-[(3-{6-[3-({1-[2-(2,6-dioxopiperidin-3-yl)-1,3-dioxo-2,3-dihydro-1H-isoindol-5-yl]azetidin-3-yl}methyl)azetidin-1-yl]pyridin-3-yl}-4-oxo-3,4-dihydroquinazolin-6-yl)oxy]-4-fluorophenyl}-3-fluoropyrrolidine-1-sulfonamide] here?
Its DC50 is 50 to 500 nM.

What about the Dmax (B-RAF V600E) of the same molecule?
The Dmax was 35 to 70%.

What about the DC50 (B-RAF G466V) of the same molecule?
The DC50 was 1 to 10 nM.

And the Dmax (B-RAF G466V)?
The Dmax was no more than 35%.

For N#Cc1c(NS(=O)(=O)N2CC[C@@H](F)C2)ccc(F)c1Oc1ccc2ncn(-c3ccc(N4CCC(CC5CCCN5c5ccc6c(c5)C(=O)N(C5CCC(=O)NC5=O)C6=O)CC4)nc3)c(=O)c2c1 (stereo partly drawn) [Example 160, (3R)-N-{2-cyano-3-[(3-{6-[4-({1-[2-(2,6-dioxopiperidin-3-yl)-1,3-dioxo-2,3-dihydro-1H-isoindol-5-yl]pyrrolidin-2-yl}methyl)piperidin-1-yl]pyridin-3-yl}-4-oxo-3,4-dihydroquinazolin-6-yl)oxy]-4-fluorophenyl}-3-fluoropyrrolidine-1-sulfonamide], which DC50 (B-RAF V600E) is on record?
Its DC50 is 50 to 500 nM.

What about the Dmax (B-RAF V600E) of the same molecule?
Its Dmax is no more than 35%.

And the DC50 (B-RAF G466V)?
Its DC50 is greater than 30 nM.

Which DC50 (B-RAF V600E) does the source give for N#Cc1c(NS(=O)(=O)N2CC[C@@H](F)C2)ccc(F)c1Oc1ccc2ncn(-c3ccc(N4CCN(c5ccc6c(c5)C(=O)N(C5CCC(=O)NC5=O)C6=O)CC4)nc3)c(=O)c2c1 (stereo partly drawn) [Example 161, (3R)-N-(2-cyano-3-{[3-(6-{4-[2-(2,6-dioxopiperidin-3-yl)-1,3-dioxo-2,3-dihydro-1H-isoindol-5-yl]piperazin-1-yl}pyridin-3-yl)-4-oxo-3,4-dihydroquinazolin-6-yl]oxy}-4-fluorophenyl)-3-fluoropyrrolidine-1-sulfonamide] here?
Its DC50 is 50 to 500 nM.

What about the Dmax (B-RAF V600E) of the same molecule?
The Dmax was 35 to 70%.

What about the DC50 (B-RAF G466V) of the same molecule?
The DC50 was 1 to 10 nM.

And the Dmax (B-RAF G466V)?
The Dmax was no more than 35%.

How did the DC50 (B-RAF V600E) turn out when N#Cc1c(NS(=O)(=O)N2CC[C@@H](F)C2)ccc(F)c1Oc1ccc2ncn(-c3ccc(N4CCN(c5ccc(C(=O)NC6CCC(=O)NC6=O)c(F)c5)CC4)nc3)c(=O)c2c1 (stereo partly drawn) [Example 162, 4-[4-(5-{6-[2-cyano-6-fluoro-3-({[(3R)-3-fluoropyrrolidin-1-yl]sulfonyl}amino)phenoxy]-4-oxo-3,4-dihydroquinazolin-3-yl}pyridin-2-yl)piperazin-1-yl]-N-(2,6-dioxopiperidin-3-yl)-2-fluorobenzamide] was run?
Its DC50 is 5 to 50 nM.

What about the Dmax (B-RAF V600E) of the same molecule?
The Dmax was 35 to 70%.

What about the DC50 (B-RAF G466V) of the same molecule?
Its DC50 is no more than 1 nM.

What about the Dmax (B-RAF G466V) of the same molecule?
Its Dmax is no more than 35%.
